System: NCI-N87 (human stomach cancer)
Assay: Combination of Compound 1 and other antitumor agents (in vitro), CellTiter-Glo, median effect method
Format: cell-based
Method: The supplier of each reagent, the suppliers of tumor cell lines, the media used, and the numbers of cells to be inoculated are shown in the tables below.
The cells were inoculated at 20 μL/well to a 384-well culture plate (Corning Inc.). The plate inoculated with the cells were cultured in an incubator set to 37° C. and 5% CO2. On the day following inoculation, each of mixed solutions of Compound 1 and each other antitumor agent at varying combinations of concentrations was added to the cells. Specifically, 8 serial dilutions (including (0 nM)) of Compound 1 and 10 serial dilutions (including (0 nM)) of the other antitumor agent were prepared using Leibovitz's L-15 medium containing 10% FBS, or ATCC formulated RPMI-1640 medium containing 10% FBS. Drug solutions in which equal amounts of the respective serial dilutions of the compounds were dispensed were mixed at a ratio of 1:1 to prepare a total of 80 mixed drug solutions including every combination. Each of these mixed drug solutions was added at 5 μL/well (N=4) to the plate, followed by further culture for 3 days under conditions of 37° C. and 5% CO2.
Three days later, CellTiter-Glo™ 2.0 Reagent (Promega Corporation) was added thereto at 25 μL/well, and chemiluminescence was measured using a plate reader (EnSpire® Multimode Plate Reader, PerkinElmer Japan Co., Ltd.).
The enhancement of an effect by combined use of the drugs was evaluated according to a method known in the art (a method described in Trends Pharmacol. Sci., 4, 450-454, 1983 or Pharmacol Rev., 58 (3), 621-81, 2006).
An average value from 4 wells of each combination was calculated from the obtained data, and a cell survival rate normalized against a control supplemented with a medium containing a vehicle was calculated. A Fa (fraction of affect) value was calculated by subtracting the cell survival rate from 1. Median effect analysis software CalcuSyn 2.0 (CalcuSyn, Inc.) for calculation by the median effect method was used in the calculation of CI.
As for the combinations of the concentrations of both the drugs for calculating CI, a Fa value closer to 1 presumably means a concentration range in which one of the drugs had too strong an effect, and a Fa value closer to 0 presumably means a concentration range in which any of the drugs had too weak an effect. Since these concentration ranges were not appropriate for the discussion of a synergistic effect, combinations that satisfied 0.2 S Fa 0.8 were extracted from the combinations of the respective concentrations of Compound 1 and the other antitumor agent on the basis of the calculated Fa value.
An effect of combined use was determined as shown in the table below (Pharmacol Rev., 58 (3), p. 621-81, 2006).

[1] = Compound 1 3.70 nM + FdUrd 333333 nM, ratio 1:90000, NCI-N87
[2] = Compound 1 3.70 nM + Gemcitabine 1.37 nM, ratio 1:0.37, NCI-N87
[3] = Compound 1 3.70 nM + Gemcitabine 4.12 nM, ratio 1:1.1, NCI-N87
[4] = Compound 1 3.70 nM + Gemcitabine 12.3 nM, ratio 1:3.3, NCI-N87
[5] = Compound 1 3.70 nM + Gemcitabine 37.0 nM, ratio 1:10, NCI-N87
[6] = Compound 1 3.70 nM + Gemcitabine 111 nM, ratio 1:30, NCI-N87
[7] = Compound 1 3.70 nM + Gemcitabine 333 nM, ratio 1:90, NCI-N87
[8] = Compound 1 3.70 nM + Paclitaxel 1.85 nM, ratio 1:0.50, NCI-N87
[9] = Compound 1 3.70 nM + Paclitaxel 5.56 nM, ratio 1:1.5, NCI-N87
[10] = Compound 1 3.70 nM + Paclitaxel 16.7 nM, ratio 1:4.5, NCI-N87
[11] = Compound 1 3.70 nM + Trifluridine 12346 nM, ratio 1:3333, NCI-N87
[12] = Compound 1 3.70 nM + Trifluridine 37037 nM, ratio 1:10000, NCI-N87
[13] = Compound 1 3.70 nM + Trifluridine 111111 nM, ratio 1:30000, NCI-N87
[14] = Compound 1 11.1 nM + Cisplatin 687 nM, ratio 1:62, NCI-N87
[15] = Compound 1 11.1 nM + Cisplatin 2062 nM, ratio 1:186, NCI-N87
[16] = Compound 1 11.1 nM + Cisplatin 6185 nM, ratio 1:557, NCI-N87
[17] = Compound 1 11.1 nM + Cisplatin 18556 nM, ratio 1:1670, NCI-N87
[18] = Compound 1 11.1 nM + Cisplatin 55667 nM, ratio 1:5010, NCI-N87
[19] = Compound 1 11.1 nM + FdUrd 4115 nM, ratio 1:370, NCI-N87
[20] = Compound 1 11.1 nM + FdUrd 12346 nM, ratio 1:1111, NCI-N87
[21] = Compound 1 11.1 nM + FdUrd 37037 nM, ratio 1:3333, NCI-N87
[22] = Compound 1 11.1 nM + FdUrd 111111 nM, ratio 1:10000, NCI-N87
[23] = Compound 1 11.1 nM + FdUrd 333333 nM, ratio 1:30000, NCI-N87
[24] = Compound 1 11.1 nM + FdUrd 1000000 nM, ratio 1:90000, NCI-N87
[25] = Compound 1 11.1 nM + Paclitaxel 0.206 nM, ratio 1:0.019, NCI-N87
[26] = Compound 1 11.1 nM + Paclitaxel 0.617 nM, ratio 1:0.056, NCI-N87
[27] = Compound 1 11.1 nM + Paclitaxel 1.85 nM, ratio 1:0.17, NCI-N87
[28] = Compound 1 11.1 nM + Paclitaxel 5.56 nM, ratio 1:0.50, NCI-N87
[29] = Compound 1 11.1 nM + Trifluridine 4115 nM, ratio 1:370, NCI-N87
[30] = Compound 1 11.1 nM + Trifluridine 12346 nM, ratio 1:1111, NCI-N87
[31] = Compound 1 11.1 nM + Trifluridine 37037 nM, ratio 1:3333, NCI-N87
[32] = Compound 1 11.1 nM + Trifluridine 111111 nM, ratio 1:10000, NCI-N87
[33] = Compound 1 33.3 nM + Cisplatin 2062 nM, ratio I:62, NCI-N87
[34] = Compound 1 33.3 nM + FdUrd 12346 nM, ratio 1:370, NCI-N87
[35] = Compound 1 […] + Gemcitabine 4.12 nM, ratio 1:10, NCI-N87
[36] = Compound 1 […] + Gemcitabine 12.3 nM, ratio 1:30, NCI-N87
[37] = Compound 1 […] + Gemcitabine 37.0 nM, ratio 1:90, NCI-N87

Compound: C=CC(=O)N1CCC[C@@H](n2nc(C(=O)Nc3ccc(CC(=O)N(C)C)c(C)c3C)c3c(N)ncnc32)C1 [Compound 1, (R)-1-(1-acryloylpiperidin-3-yl)-4-amino-N-(4-(2-(dimethylamino)-2-oxoethyl)-2,3-dimethylphenyl)-1H-pyrazolo[3,4-d]pyrimidine-3-carboxamide]
- CI [1]: 0.47
- Fa [1]: 0.62
- CI [2]: 0.15
- Fa [2]: 0.75
- CI [3]: 0.12
- Fa [3]: 0.77
- CI [4]: 0.10
- Fa [4]: 0.80
- CI [5]: 0.11
- Fa [5]: 0.78
- CI [6]: 0.11
- Fa [6]: 0.78
- CI [7]: 0.12
- Fa [7]: 0.77
- CI [8]: 0.84
- Fa [8]: 0.41
- CI [9]: 0.42
- Fa [9]: 0.64
- CI [10]: 0.55
- Fa [10]: 0.71
- CI [11]: 0.51
- Fa [11]: 0.57
- CI [12]: 0.51
- Fa [12]: 0.61
- CI [13]: 0.51
- Fa [13]: 0.67
- CI [14]: 0.87
- Fa [14]: 0.59
- CI [15]: 0.71
- Fa [15]: 0.64
- CI [16]: 0.48
- Fa [16]: 0.74
- CI [17]: 0.50
- Fa [17]: 0.77
- CI [18]: 0.90
- Fa [18]: 0.79
- CI [19]: 0.79
- Fa [19]: 0.61
- CI [20]: 0.55
- Fa [20]: 0.68
- CI [21]: 0.58
- Fa [21]: 0.67
- CI [22]: 0.46
- Fa [22]: 0.73
- CI [23]: 0.52
- Fa [23]: 0.75
- CI [24]: 0.31
- Fa [24]: 0.79
- CI [25]: 0.58
- Fa [25]: 0.69
- CI [26]: 0.52
- Fa [26]: 0.71
- CI [27]: 0.61
- Fa [27]: 0.69
- CI [28]: 0.44
- Fa [28]: 0.78
- CI [29]: 0.79
- Fa [29]: 0.69
- CI [30]: 0.51
- Fa [30]: 0.77
- CI [31]: 0.63
- Fa [31]: 0.74
- CI [32]: 0.49
- Fa [32]: 0.80
- CI [33]: 0.73
- Fa [33]: 0.80
- CI [34]: 0.76
- Fa [34]: 0.80
- CI [35]: 0.21
- Fa [35]: 0.68
- CI [36]: 0.23
- Fa [36]: 0.69
- CI [37]: 0.02
- Fa [37]: 0.71
